Patent US10696615B2, “Prenylated hydroxystilbenes” (The University of Sydney, priority 2011, dated 2020)
Converted amounts (≈) assume the structure as drawn. Read-outs that look alike come from different tables or passages of the source.

How the values were obtained:
BT-549 = experiment: NCI in vitro cancer screen, Breast Cancer; assay type: cell-based, human; conditions: for GI50 / CC50: Homo sapiens; for CC50: read-out: LC50 (the source's name)
human tumor cell lines = experiment: NCI in vitro cancer screen, whole panel (summary statements); assay type: cell-based
PI3Kγ = PI3Kγ (Homo sapiens, UniProt P48736); experiment: Kinase activity assay; assay type: biochemical; conditions: listed = inhibited more than 60%
Procedure: (§1) • Kinase-Glo(Plus)/ADP-Gloassay buffer 25 mMHEPES, 10 mMMgCl2, 0.01% Triton X-100, 100 μg/mLBSA, 2.5 mMDTT, pH7.4. • Caliper assay buffer 100 mMHEPES, 10 mMMgCl2, 100 μl/L Brij35 (30%), 1 mMDTT, pH7.4. Assay Substrates • MBP protein, UnactiveMEK1, Rbprotein were purchased from SignalChem. Poly(glu:tyr)(4:1) was purchased from Sigma. PIP2 was purchased from Cayman. Peptide substrates were synthesized in HD Biosciences, China. ATP was purchased from Sigma. KinaseGloPlus reagent, KinaseGloreagent and ADP Gloreagent were purchased from Promega Assay Procedure—Caliper Format
(§2) Mix Kinases, substrate, ATP and compound in 96-well assay plate, total volume is 50 μL. Incubate assay plate at 30° C. for 1 hour. Stop reaction by adding 20 μL of 35 mM EDTA and transfer 26 μL stopped reaction to 384-well assay plate. Read the assay plate on the plate reader.
(§3) Mix Kinases, substrate, ATP and compound in 384-well assay plate, total volume is 10 μl. Incubate assay plate at 30° C. for 1 hour. Add 10 μl/well of ADP GloReagent to the assay plate, incubate at 27° C. for 40 min.
(§4) Add 20 μl/well Detection Reagent to the assay plate, incubate at 27° C. for 30 min. Read the assay plate on the plate reader
(§5) Mix Kinase, substrate, ATP and compound in 384-well assay plate, total volume is 10 μl. Incubate assay plate at 30° C. for 1 hour. Add 10 μl/well KinaseGlo(Plus) reagent to the reaction mixture, and then incubate at 27° C. for 20 min. Read the assay plate on plate reader. • Hundred percent effect was performed without compound and enzyme, but containing ATP and substrate. • Zero percent effect was carried out without compound, but containing ATP, substrate and enzyme. • SB202190 is reference compounds for kinase p38β; Staurosporine(STSP) is reference compound for the remaining kinases. Results

CDK2/CyclinA2 = CDK2/CyclinA2 (Homo sapiens, UniProt P24941); experiment: Kinase activity assay; assay type: biochemical; conditions: listed = inhibited more than 60%
Procedure: as §1, §2, §3, §4, §5

PI3Kβ = PI3Kβ (Homo sapiens, UniProt P42338); experiment: Kinase activity assay; assay type: biochemical; conditions: listed = inhibited more than 60%
Procedure: as §1, §2, §3, §4, §5

TrkA = TrkA (Homo sapiens, UniProt P04629); experiment: Kinase activity assay; assay type: biochemical; conditions: listed = inhibited more than 60%
Procedure: as §1, §2, §3, §4, §5

PI3Kδ = PI3Kδ (Homo sapiens, UniProt O00329); experiment: Kinase activity assay; assay type: biochemical; conditions: listed = inhibited more than 60%
Procedure: as §1, §2, §3, §4, §5

PI3Kα = PI3Kα (Homo sapiens, UniProt P42336); experiment: Kinase activity assay; assay type: biochemical; conditions: listed = inhibited more than 60%
Procedure: as §1, §2, §3, §4, §5

FLT3 = FLT3 (Homo sapiens, UniProt P36888); experiment: Kinase activity assay; assay type: biochemical; conditions: listed = inhibited more than 60%
Procedure: as §1, §2, §3, §4, §5

Klebsiella pneumoniae = experiment: MIC screening, broth microdilution (CLSI)
Procedure: (§6) The minimum inhibition concentration (MIC) screening was performed with 14 bacterial strains and 4 compounds. The MICs were determined by the broth microdilution method according to the Clinical and Laboratory Standards Institute (CLSI) guidelines. The MIC screening was performed on 96-well plates containing the compounds in serial 2-fold dilutions from 64 to 0.06 μg/ml. The bacterial inoculations were prepared in cation-adjusted Mueller Hinton medium broth from cultures grown on appropriate agar plates which are prepared freshly every week. The growth controls and sterile controls were included in each assay plates. The assay plates were incubated in an ambient-air incubator at 35±2° C. for 16-20 hr (24 hr for MRSA), and bacterial growth was observed and recorded.
(§7) Compound stock solutions were prepared in 100% DMSO on the day of MIC screening and use immediately. Compound stock concentration=[(highest testing concentration)×103 μl/3 μl] (e.g. if the required highest testing concentration is 64 μg/ml in assay plates, stock concentration=64×103/3=2.2 mg/ml). The potency of testing compound is assumed as 100% unless otherwise stated whereas the potency of reference compound is calculated according to manufacturer's analysis data.
(§8) Eleven two-fold dilutions per compound were made then transferred 3 μl to each well of test plate. Final concentration of DMSO in the MIC screening is ˜3%.
(§9) B. Transfer colonies from fresh culture plates into 5 ml of saline with sterile loops and mix well. Measure and adjust turbidity to 0.5 McFarland barium sulphate standard using a turbidity meter. Alternatively, transfer 1-2 colonies into 500 μl of saline and adjust OD625 to ˜0.1 using a plate reader. […] Dilute bacterial inoculum 1:280 for Gram-positive and fastidious strains and 1:400 for Gram-negative strains into corresponding medium broth (CAMHB, CAMHB+3% lysed horse blood, HTM) (e.g. 35.6 μl of inoculum into 10 ml of CAMHB or 25 μl of inoculum into 10 ml of CAMHB). H. influenzae: HTM Streptococci: CAMHB+3% lysed horse blood Other strains in the panel: CAMHB 2.4. Prepare Assay Plates A. Add 100 μl of the bacterial inoculum to each well of the compound plates except wells B12, D12, F12 and H12. B. Add 100 μl of medium broth to wells B12, D12, F12 and H12 of the compound plates. […] Stack four plates together and cover with a sterile plate lid. Incubate in an ambient-air incubator at 35±2° C. for 16-20 hours (24 hours for MRSA). […] Perform Colony Counts A. Dilute the bacterial inoculum (0.5 McFarland) to a serial of 10-1 to 10-7 in saline solution (e.g. 100 μl bacterial inoculum+900 μl of saline). B. Spread 100 μl of each dilution (10-4, 10-5, 10-6, and 10-7) onto CAMHA plates in triplication, let the liquid soak into the agar for 10 minutes, invert the agar plates and incubate for 24 hr at 35±2° C. […] Record MICs and Calculate CFUs A. Open the compound plate layout in the compound management system, and check the assay plate barcode. B. Place the assay plate on the top of MIC reader, and adjust the magnification mirror to read each wells, record growth status as raw data. (Optional) Record photo image of each assay plates using high-speed high-resolution scanner. […] Determine MIC break points according to CLSI guideline. D. Count colonies and calculate CFU of bacterial inoculum.

Haemophilus influenzae = experiment: MIC screening, broth microdilution (CLSI)
Procedure: as §6
(§10) A. Revive bacterial strains from storage frozen (−80° C.) two days before the MIC screening. Streak onto surface of appropriate agar plates, and incubate the plates for 20-24 hr at 35±2° C. in an appropriate atmosphere.
Haemophilus influenzae: chocolate agar, 5% CO2
(§11) B. Select 5-10 well-isolated colonies of similar morphology and restreak onto fresh agar plates using sterile loops. Incubate the plates for 20-24 hr at 35±2° C. in an appropriate atmosphere as above.
as §7, §8, §9

Enterococci = experiment: MIC screening, broth microdilution (CLSI)
Procedure: as §6, §10
Enterococci: TSA II, ambient air
as §11, §7, §8
B. Transfer colonies from fresh culture plates into 5 ml of saline with sterile loops and mix well. Measure and adjust turbidity to 0.5 McFarland barium sulphate standard using a turbidity meter. Alternatively, transfer 1-2 colonies into 500 μl of saline and adjust OD625 to ˜0.1 using a plate reader. C. Dilute bacterial inoculum 1:280 for Gram-positive and fastidious strains and 1:400 for Gram-negative strains into corresponding medium broth (CAMHB, CAMHB+3% lysed horse blood, HTM) (e.g. 35.6 μl of inoculum into 10 ml of CAMHB or 25 μl of inoculum into 10 ml of CAMHB). H. influenzae: HTM Streptococci: CAMHB+3% lysed horse blood Other strains in the panel: CAMHB 2.4. Prepare Assay Plates A. Add 100 μl of the bacterial inoculum to each well of the compound plates except wells B12, D12, F12 and H12. B. Add 100 μl of medium broth to wells B12, D12, F12 and H12 of the compound plates. C. Stack four plates together and cover with a sterile plate lid. Incubate in an ambient-air incubator at 35±2° C. for 16-20 hours (24 hours for MRSA). […] Perform Colony Counts A. Dilute the bacterial inoculum (0.5 McFarland) to a serial of 10-1 to 10-7 in saline solution (e.g. 100 μl bacterial inoculum+900 μl of saline). B. Spread 100 μl of each dilution (10-4, 10-5, 10-6, and 10-7) onto CAMHA plates in triplication, let the liquid soak into the agar for 10 minutes, invert the agar plates and incubate for 24 hr at 35±2° C. […] Record MICs and Calculate CFUs A. Open the compound plate layout in the compound management system, and check the assay plate barcode. B. Place the assay plate on the top of MIC reader, and adjust the magnification mirror to read each wells, record growth status as raw data. (Optional) Record photo image of each assay plates using high-speed high-resolution scanner. C. Determine MIC break points according to CLSI guideline. D. Count colonies and calculate CFU of bacterial inoculum.

Escherichia coli = experiment: MIC screening, broth microdilution (CLSI)
Procedure: as §6, §7, §8, §9

Pseudomonas aeruginosa = experiment: MIC screening, broth microdilution (CLSI)
Procedure: as §6, §7, §8, §9

Streptococci = experiment: MIC screening, broth microdilution (CLSI)
Procedure: as §6, §10
Streptococci: TSA II, 5% CO2
as §11, §7, §8, §9

[1] = Calculated Log partition coefficients (Log P)
Staphylococcus aureus = experiment: MIC screening, broth microdilution (CLSI)
Procedure: as §6, §7, §8, §9

[2] = system: Acinetobacter calcoaceticus; experiment: MIC screening, broth microdilution (CLSI)
Procedure: as §6, §7, §8, §9

MRSA = experiment: MIC screening, broth microdilution (CLSI)
Procedure: The MICs were determined by the broth microdilution method according to the Clinical and Laboratory Standards Institute (CLSI) guidelines. The MIC screening was performed on 96-well plates containing the compounds in serial 2-fold dilutions from 64 to 0.06 μg/ml. The bacterial inoculations were prepared in cation-adjusted Mueller Hinton medium broth from cultures grown on appropriate agar plates which are prepared freshly every week. The growth controls and sterile controls were included in each assay plates. The assay plates were incubated in an ambient-air incubator at 35±2° C. for 16-20 hr (24 hr for MRSA), and bacterial growth was observed and recorded.
as §10, §11, §7, §8, §9

[3] = Enterococcus faecalis, ATCC29212, Enterococcus faecalis (ATCC 29212), Exp 1
[4] = Enterococcus faecalis, ATCC29212, Enterococcus faecalis (ATCC 29212), Exp 2
[5] = Enterococcus faecium, ATCC700221, Enterococcus faecium (ATCC 700221), Exp 1
[6] = Enterococcus faecium, ATCC700221, Enterococcus faecium (ATCC 700221), Exp 2
[7] = Streptococcus pneumoniae, ATCC49619, Streptococcus pneumoniae (ATCC 49619), Exp 1
[8] = Streptococcus pneumoniae, ATCC49619, Streptococcus pneumoniae (ATCC 49619), Exp 2
[9] = Streptococcus pneumoniae, Streptococcus pneumoniae (Erythromycin-resistant), Exp 1
[10] = Streptococcus pneumoniae, Streptococcus pneumoniae (Erythromycin-resistant), Exp 2
[11] = Streptococcus pyogenes, ATCC700942, Streptococcus pyogenes (ATCC 700942), Exp 1
[12] = Streptococcus pyogenes, ATCC700942, Streptococcus pyogenes (ATCC 700942), Exp 2
[13] = ATCC29213, Staphylococcus aureus (ATCC 29213), Exp 1
[14] = ATCC29213, Staphylococcus aureus (ATCC 29213), Exp 2
[15] = Staphylococcus aureus (Levofloxacin-resistant), Exp 1
[16] = Staphylococcus aureus (Levofloxacin-resistant), Exp 2
[17] = Staphylococcus aureus (ATCC 43300), Exp 2
[18] = Staphylococcus aureus (MRSA, Erythromycin & clindamycin-resistant), Exp 2
[19] = Staphylococcus aureus, ATCC43300 / MRSA

Sequence of PI3Kδ (O00329 whole entry, species assumed): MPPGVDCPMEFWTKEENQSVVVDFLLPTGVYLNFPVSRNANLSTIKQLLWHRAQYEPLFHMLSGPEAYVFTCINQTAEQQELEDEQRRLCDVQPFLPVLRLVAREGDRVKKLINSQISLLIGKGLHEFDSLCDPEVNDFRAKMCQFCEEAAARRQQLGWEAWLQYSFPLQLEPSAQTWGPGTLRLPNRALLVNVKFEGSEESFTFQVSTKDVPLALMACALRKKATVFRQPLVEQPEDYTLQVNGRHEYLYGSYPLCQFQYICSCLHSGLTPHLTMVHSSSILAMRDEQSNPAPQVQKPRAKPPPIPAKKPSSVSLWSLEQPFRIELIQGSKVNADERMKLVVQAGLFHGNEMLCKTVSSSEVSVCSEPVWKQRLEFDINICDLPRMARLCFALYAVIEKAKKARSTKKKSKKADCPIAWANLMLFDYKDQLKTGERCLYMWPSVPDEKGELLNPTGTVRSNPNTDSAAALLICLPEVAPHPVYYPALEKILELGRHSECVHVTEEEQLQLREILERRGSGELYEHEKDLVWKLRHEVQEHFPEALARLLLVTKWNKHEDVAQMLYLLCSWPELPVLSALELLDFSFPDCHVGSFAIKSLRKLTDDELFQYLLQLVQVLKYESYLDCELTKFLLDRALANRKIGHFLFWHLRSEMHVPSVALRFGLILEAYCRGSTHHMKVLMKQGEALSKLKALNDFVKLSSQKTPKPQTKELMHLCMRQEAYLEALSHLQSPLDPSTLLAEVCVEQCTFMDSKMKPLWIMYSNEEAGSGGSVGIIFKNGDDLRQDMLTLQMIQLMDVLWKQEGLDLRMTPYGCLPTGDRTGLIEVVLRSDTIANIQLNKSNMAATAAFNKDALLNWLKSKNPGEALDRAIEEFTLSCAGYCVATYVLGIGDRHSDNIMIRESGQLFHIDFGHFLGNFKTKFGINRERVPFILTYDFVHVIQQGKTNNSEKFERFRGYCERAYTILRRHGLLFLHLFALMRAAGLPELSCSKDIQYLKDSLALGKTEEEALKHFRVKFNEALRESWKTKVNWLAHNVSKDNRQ
Sequence of PI3Kδ (P27986 whole entry partner, species assumed): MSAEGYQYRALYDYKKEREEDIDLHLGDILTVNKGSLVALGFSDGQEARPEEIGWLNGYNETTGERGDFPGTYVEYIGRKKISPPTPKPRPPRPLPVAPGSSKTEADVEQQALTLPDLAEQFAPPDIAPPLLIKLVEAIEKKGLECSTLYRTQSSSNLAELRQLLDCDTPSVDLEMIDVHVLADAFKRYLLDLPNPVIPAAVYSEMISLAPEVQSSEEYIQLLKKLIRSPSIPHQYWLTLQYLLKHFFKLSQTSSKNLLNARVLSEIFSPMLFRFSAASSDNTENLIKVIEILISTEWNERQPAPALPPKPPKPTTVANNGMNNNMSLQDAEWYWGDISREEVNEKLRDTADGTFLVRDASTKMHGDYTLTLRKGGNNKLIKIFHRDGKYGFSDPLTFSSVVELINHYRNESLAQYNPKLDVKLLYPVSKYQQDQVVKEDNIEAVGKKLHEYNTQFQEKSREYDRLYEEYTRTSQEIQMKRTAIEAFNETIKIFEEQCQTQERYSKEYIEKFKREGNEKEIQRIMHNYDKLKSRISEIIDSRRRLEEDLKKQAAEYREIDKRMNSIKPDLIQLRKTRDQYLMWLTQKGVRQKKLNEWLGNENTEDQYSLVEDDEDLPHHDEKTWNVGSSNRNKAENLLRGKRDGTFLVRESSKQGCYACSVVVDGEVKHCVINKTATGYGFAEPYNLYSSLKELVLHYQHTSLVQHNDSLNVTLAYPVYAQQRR
Sequence of TrkA (P04629 33-796, species assumed): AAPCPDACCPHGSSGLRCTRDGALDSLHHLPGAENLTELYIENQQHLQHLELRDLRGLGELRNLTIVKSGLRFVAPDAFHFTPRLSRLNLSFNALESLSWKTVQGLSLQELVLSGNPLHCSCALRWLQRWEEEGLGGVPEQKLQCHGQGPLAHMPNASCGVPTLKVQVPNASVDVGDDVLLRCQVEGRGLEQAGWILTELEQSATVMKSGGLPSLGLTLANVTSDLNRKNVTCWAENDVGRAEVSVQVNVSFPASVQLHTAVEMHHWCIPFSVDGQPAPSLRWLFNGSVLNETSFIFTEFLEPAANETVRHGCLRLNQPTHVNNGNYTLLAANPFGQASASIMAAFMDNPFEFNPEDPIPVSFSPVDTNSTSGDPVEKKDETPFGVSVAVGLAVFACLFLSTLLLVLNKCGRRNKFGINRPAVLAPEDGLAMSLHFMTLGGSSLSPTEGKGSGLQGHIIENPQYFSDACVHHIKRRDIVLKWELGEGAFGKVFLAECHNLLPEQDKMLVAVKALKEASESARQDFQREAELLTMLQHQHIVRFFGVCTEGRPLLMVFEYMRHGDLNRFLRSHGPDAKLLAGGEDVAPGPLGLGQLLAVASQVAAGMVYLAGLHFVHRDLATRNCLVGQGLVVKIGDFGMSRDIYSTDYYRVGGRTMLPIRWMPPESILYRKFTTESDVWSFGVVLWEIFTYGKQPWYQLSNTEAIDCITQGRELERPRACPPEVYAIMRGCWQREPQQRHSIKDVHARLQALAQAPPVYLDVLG
Sequence of PI3Kγ (P48736 whole entry, species assumed): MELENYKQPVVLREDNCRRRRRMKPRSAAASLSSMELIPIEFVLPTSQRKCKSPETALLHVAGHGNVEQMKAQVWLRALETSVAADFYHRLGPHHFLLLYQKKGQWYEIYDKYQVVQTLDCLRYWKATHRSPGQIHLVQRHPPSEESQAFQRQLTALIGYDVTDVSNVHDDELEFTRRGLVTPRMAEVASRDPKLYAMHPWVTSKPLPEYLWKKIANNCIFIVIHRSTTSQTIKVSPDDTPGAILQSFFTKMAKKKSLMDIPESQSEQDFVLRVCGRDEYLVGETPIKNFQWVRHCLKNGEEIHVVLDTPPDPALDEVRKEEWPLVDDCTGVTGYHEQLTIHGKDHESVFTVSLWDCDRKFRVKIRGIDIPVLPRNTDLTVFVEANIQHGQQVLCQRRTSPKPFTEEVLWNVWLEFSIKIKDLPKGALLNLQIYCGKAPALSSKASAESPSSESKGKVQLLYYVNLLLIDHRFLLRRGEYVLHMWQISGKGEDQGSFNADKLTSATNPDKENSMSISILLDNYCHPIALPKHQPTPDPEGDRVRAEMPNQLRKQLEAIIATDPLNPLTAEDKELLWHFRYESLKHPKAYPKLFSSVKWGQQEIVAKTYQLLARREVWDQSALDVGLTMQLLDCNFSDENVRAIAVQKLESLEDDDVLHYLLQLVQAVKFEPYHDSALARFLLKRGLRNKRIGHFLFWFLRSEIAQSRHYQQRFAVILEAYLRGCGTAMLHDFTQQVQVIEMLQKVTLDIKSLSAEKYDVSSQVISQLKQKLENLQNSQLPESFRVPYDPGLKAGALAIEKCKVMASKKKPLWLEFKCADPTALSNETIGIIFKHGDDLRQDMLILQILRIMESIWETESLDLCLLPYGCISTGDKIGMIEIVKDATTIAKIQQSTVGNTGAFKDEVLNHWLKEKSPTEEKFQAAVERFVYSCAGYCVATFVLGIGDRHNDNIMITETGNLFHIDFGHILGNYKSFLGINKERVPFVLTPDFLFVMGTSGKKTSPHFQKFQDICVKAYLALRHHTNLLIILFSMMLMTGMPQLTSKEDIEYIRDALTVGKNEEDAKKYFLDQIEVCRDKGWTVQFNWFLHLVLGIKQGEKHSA
Sequence of FLT3 (P36888 27-993, species assumed): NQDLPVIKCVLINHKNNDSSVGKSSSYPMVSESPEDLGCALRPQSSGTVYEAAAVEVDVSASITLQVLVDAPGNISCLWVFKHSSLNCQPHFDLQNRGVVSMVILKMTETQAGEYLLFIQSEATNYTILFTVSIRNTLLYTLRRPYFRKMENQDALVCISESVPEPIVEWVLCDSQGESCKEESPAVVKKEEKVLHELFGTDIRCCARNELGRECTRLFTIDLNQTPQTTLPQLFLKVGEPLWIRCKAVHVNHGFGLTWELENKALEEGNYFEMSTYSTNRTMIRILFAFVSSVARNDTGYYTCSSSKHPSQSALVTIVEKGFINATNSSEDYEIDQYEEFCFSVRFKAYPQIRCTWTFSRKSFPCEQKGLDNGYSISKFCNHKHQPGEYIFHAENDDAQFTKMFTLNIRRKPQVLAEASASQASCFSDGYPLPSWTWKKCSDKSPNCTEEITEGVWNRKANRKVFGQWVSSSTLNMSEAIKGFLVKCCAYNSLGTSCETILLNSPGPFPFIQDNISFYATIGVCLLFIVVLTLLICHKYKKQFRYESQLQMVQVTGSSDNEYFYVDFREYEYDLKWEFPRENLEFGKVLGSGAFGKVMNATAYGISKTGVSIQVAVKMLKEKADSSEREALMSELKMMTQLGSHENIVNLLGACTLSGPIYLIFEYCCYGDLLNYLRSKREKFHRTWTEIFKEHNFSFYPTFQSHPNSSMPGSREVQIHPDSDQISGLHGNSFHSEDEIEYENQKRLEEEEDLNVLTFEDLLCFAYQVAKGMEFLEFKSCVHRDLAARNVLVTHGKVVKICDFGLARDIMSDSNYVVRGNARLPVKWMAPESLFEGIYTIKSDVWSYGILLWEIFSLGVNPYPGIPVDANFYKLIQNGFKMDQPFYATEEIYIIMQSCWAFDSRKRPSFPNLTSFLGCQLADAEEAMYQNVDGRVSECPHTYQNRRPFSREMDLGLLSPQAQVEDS

SMILES | inhibition of cancerous cell growth (human tumor cell lines; result in words) | Kinases that inhibited more than 60% (PI3Kγ) | Kinases that inhibited more than 60% (CDK2/CyclinA2) | Kinases that inhibited more than 60% (PI3Kβ) | Kinases that inhibited more than 60% (TrkA) | Kinases that inhibited more than 60% (PI3Kδ) | Kinases that inhibited more than 60% (PI3Kα) | Kinases that inhibited more than 60% (FLT3) | MIC (Klebsiella pneumoniae) [µg/mL] | MIC (Klebsiella pneumoniae; Exp 2) [µg/mL] | MIC (Haemophilus influenzae) [µg/mL] | MIC (Haemophilus influenzae; Exp 2) [µg/mL] | MIC (Enterococci; [3]) [µg/mL] | MIC (Enterococci; [4]) [µg/mL] | MIC (Enterococci; [5]) [µg/mL] | MIC (Enterococci; [6]) [µg/mL] | MIC (Escherichia coli; Exp 1) [µg/mL] | MIC (Escherichia coli; Exp 2) [µg/mL] | MIC (Pseudomonas aeruginosa) [µg/mL] | MIC (Pseudomonas aeruginosa; Exp 2) [µg/mL] | further results
CC(C)=CCOc1cc(O)cc(/C=C/c2ccc(O)c(O)c2)c1CC=C(C)C [USYDS14, (E)-2-(3-methyl-2-buten-1-yl)-3-(3-methyl-2-butenyloxy)-3′,4′,5-trihydroxystilbene] | structure dependent inhibition of cancerous cell growth |  |  |  |  |  |  |  |  |  |  |  |  |  |  |  |  |  |  |  | TGI (BT-549; BT-549, Breast Cancer): 1.63e-05 M; GI50 (BT-549; BT-549, Breast Cancer): 4.27 µM; CC50 (BT-549; BT-549, Breast Cancer): 46.9 µM
COc1cc(/C=C/c2cc(O)cc(O)c2CC=C(C)C)ccc1O [USYDS10, (E)-2-(3-methyl-2-buten-1-yl)-3,4′,5-trihydroxy-3′-methoxystilbene] | structure dependent inhibition of cancerous cell growth | PI3Kγ | CDK2/CyclinA2 | PI3Kβ | TrkA | PI3Kδ | PI3Kα | FLT3 |  |  |  |  |  |  |  |  |  |  |  |  | TGI (BT-549; BT-549, unit not printed (M)): 1.90E−5; GI50 (BT-549; BT-549, unit not printed (M)): 0.798 µM; CC50 (BT-549; BT-549, unit not printed (M)): 49.3 µM
COc1cc(/C=C/c2cc(O)cc(OCC=C(C)C)c2)ccc1O [USYDS2, (E)-3-(3-methyl-2-butenyloxy)-4′,5-dihydroxy-3′-methoxystilbene] |  | PI3Kγ |  | PI3Kβ | TrkA | PI3Kδ |  |  | > 64 | >64 | 32 (≈ 98 µM) | 32 (≈ 98 µM) | 32 (≈ 98 µM) | 32 (≈ 98 µM) | 32 (≈ 98 µM) | 32 (≈ 98 µM) | 64 (≈ 196 µM) | 32 (≈ 98 µM) | > 64 | >64 | MIC (Streptococci; [7]): 32 µg/mL (≈ 98 µM); MIC (Streptococci; [8]): 32 µg/mL (≈ 98 µM); MIC (Streptococci; [9]): 32 µg/mL (≈ 98 µM); MIC (Streptococci; [10]): 64 µg/mL (≈ 196 µM); MIC (Streptococci; [11]): 64 µg/mL (≈ 196 µM); MIC (Streptococci; [12]): 64 µg/mL (≈ 196 µM); Log P relative to resveratrol [1]: almost twice that of the hydroxystilbene resveratrol; MIC (Staphylococcus aureus; [13]): 32 µg/mL (≈ 98 µM); MIC (Staphylococcus aureus; [14]): 16 µg/mL (≈ 49 µM); MIC (Staphylococcus aureus; [15]): 16 µg/mL (≈ 49 µM); MIC (Staphylococcus aureus; [16]): 16 µg/mL (≈ 49 µM); MIC [2]: > 64 µg/mL; MIC ([2]; Exp 2): >64 µg/mL; MIC (MRSA; [17]): 16 µg/mL (≈ 49 µM); MIC (MRSA; [18]): 16 µg/mL (≈ 49 µM); MIC (MRSA; [19]): 16 µg/mL (≈ 49 µM); MIC (MRSA; Staphylococcus aureus, MRSA): 16 µg/mL (≈ 49 µM)
COc1cc(/C=C/c2cc(O)cc(OC)c2CC=C(C)C)ccc1O [USYDS1, (E)-2-(3-methyl-2-buten-1-yl)-4′,5-dihydroxy-3,3′-dimethoxystilbene] |  | PI3Kγ | CDK2/CyclinA2 |  | TrkA | PI3Kδ | PI3Kα | FLT3 | > 64 | >64 | 32 (≈ 94 µM) | 32 (≈ 94 µM) | 16 (≈ 47 µM) | 16 (≈ 47 µM) | 8 (≈ 23.5 µM) | 16 (≈ 47 µM) | 16 (≈ 47 µM) | 16 (≈ 47 µM) | > 64 | >64 | GI50 (human tumor cell lines; Homo sapiens, range over almost all types of tumor cells): 0.02 to 5 µM; fold more potent than piceatannol (human tumor cell lines; inhibition of proliferation of almost all types of tumor cells): approximately 250 fold; order of potency in the inhibition of cancerous cell growth (human tumor cell lines; result in words): most potent activity; MIC (Streptococci; [7]): 32 µg/mL (≈ 94 µM); MIC (Streptococci; [8]): 32 µg/mL (≈ 94 µM); MIC (Streptococci; [9]): 32 µg/mL (≈ 94 µM); MIC (Streptococci; [10]): 32 µg/mL (≈ 94 µM); MIC (Streptococci; [11]): 64 µg/mL (≈ 188 µM); MIC (Streptococci; [12]): 64 µg/mL (≈ 188 µM); Log P relative to resveratrol [1]: almost twice that of the hydroxystilbene resveratrol; MIC (Staphylococcus aureus; [13]): 16 µg/mL (≈ 47 µM); MIC (Staphylococcus aureus; [14]): 8 µg/mL (≈ 23.5 µM); MIC (Staphylococcus aureus; [15]): 8 µg/mL (≈ 23.5 µM); MIC (Staphylococcus aureus; [16]): 8 µg/mL (≈ 23.5 µM); MIC [2]: > 64 µg/mL; MIC ([2]; Exp 2): >64 µg/mL; MIC (MRSA; [17]): 8 µg/mL (≈ 23.5 µM); MIC (MRSA; [18]): 8 µg/mL (≈ 23.5 µM); MIC (MRSA; [19]): 8 µg/mL (≈ 23.5 µM); MIC (MRSA; Staphylococcus aureus, MRSA): 8 µg/mL (≈ 23.5 µM)
